Patent US8809542B2, “Salts of benzimidazole compound and use thereof” (Takeda Pharmaceutical Company Limited, priority 2000, dated 2014)

Assay: Storage stability of the crystal in a hermetically sealed glass bottle, content (residual percentage) by HPLC
Type: physicochemical
Conditions: for description: appearance
Protocol: The crystal of a sodium salt obtained in Example 1 (about 5 mg) was served into a colorless glass bottle, the bottle was hermetically sealed by a stopper, and stability of the crystal during storage at 60° C. for 4 weeks was examined. 25 ml of a sample (concentration: about 0.2 mg/ml) was prepared by dissolving the sample after completion of storage in a mobile phase. The sample solution along with a standard solution prepared by using the initial lot (a frozen sample stored for the same term), was analyzed under the HPLC conditions shown below, and the content (residual percentage) was calculated from the peak area obtained.
[HPLC Analytical Conditions]
Detection wavelength: UV 275 nm
Mobile phase: Fluid prepared by adding phosphoric acid to water/acetonitrile/triethylamine (63:37:1) to adjust pH 7
Column temperature: 40° C.
Sample injection volume: 10 μL

Cc1c(OCC(F)(F)F)ccnc1C[S@@+]([O-])c1nc2ccccc2[n-]1.[Na+] [Example 1, sodium salt of (R)-2-[[[3-methyl-4-(2,2,2-trifluoroethoxy)-2-pyridinyl]methyl]sulfinyl]-1H-benzimidazole]
content (residual percentage) (freeze-storage for the same term (initial lot used as standard)): [100] %
description (freeze-storage): nearly white
content (residual percentage) (solid crystal stored at 60° C. (airtight) for 4 weeks, HPLC peak area vs frozen initial lot, listed as crystal of Ex. 1): 99.2%
content (residual percentage) (solid crystal stored at 60° C. (airtight) for 4 weeks, HPLC peak area vs frozen initial lot, listed as crystal of a sodium salt of R(+)-lansoprazole): exceeding 99%
description (solid crystal stored at 60° C. (airtight) for 4 weeks): nearly white
